From patent US20100279984A1, “PHARMACEUTICAL COMPOSITIONS CONTAINING BENFOTIAMINE AND ONE OR ONE MORE PHARMACEUTICALLY ACTIVE AGENTS FOR THE TREATMENT OF PAIN CONDITIONS OF NEUROPATHIC ORIGIN” (Merck Patent GmbH, priority 2007, published 2010)

Tests used:
[1] = tested on: tactile allodynia induced by ligation of L5 and L6 spinal nerves; assay: Antiallodynic activity: tactile allodynia (von Frey paw withdrawal threshold) in L5/L6 spinal nerve ligated rats (Kim and Chung model); format: in vivo, female Wistar rats; conditions: for ED30 (dose producing 30% of antiallodynia): drug alone, 60 min before threshold evaluation, ±SEM; for ED30 (dose producing 30% of antiallodynia) / reduction of tactile allodynia (in words): spinal nerve ligated rats; for reduction of tactile allodynia (in words): P<0.05
Description: The purpose of this study was to assess the possible synergistic interaction between gabapentin and benfotiamine in a neuropathic pain model in the rat (Kim, S. H. and Chung, J. M.: Pain 50: 355-363 (1992)). In addition, the possible synergistic interaction between gabapentin and benfotiamine was also assessed in rats with neuropathic pain. Neuropathic pain was induced by ligation of the left L5 and L6 spinal nerves of female Wistar rats. Tactile allodynia was determined by measuring paw withdrawal in response to probing with a series of calibrated von Frey filaments.
Female Wistar rats aged 6-7 weeks (weight range, 120-140 g) from our own breeding facilities were used in this study. Animals had free access to food and drinking water before experiments. Efforts were made to minimize animal suffering and to reduce the number of animals used. All experiments followed the Guidelines on Ethical Standards for Investigation of Experimental Pain in Animals (Zimmermann. M.: Pain 16: 109-110 (1983)). Additionally, the study was approved by the Institutional Animal Care and Use Committee (Centro de Investigacion y de Estudios Avanzados del Instituto Politecnico Nacional, Mexico, D.F., Mexico).
Evaluation of antiallodynic activity: Rats were prepared according to the method of Kim and Chung (Kim, S. H. and Chung, J. M.: Pain 50: 355-363 (1992)). Animals were anesthetized with a mixture of ketamine/xylazine (45-12 mg/kg, i.p.). After surgical preparation and exposure of the dorsal vertebral column, the L5 and L6 spinal nerves were exposed and tightly ligated with 6-0 silk suture distal to the dorsal root ganglion. For sham operated rats, the nerves were exposed but not ligated. The incisions were closed, and the animals were allowed to recover for 15 days. […] Tactile allodynia was determined by measuring paw withdrawal in response to probing with a series of calibrated fine filaments (von Frey filaments). The strength of the von Frey stimuli range from 0.4 to 15 g. Withdrawal thresholds were determined by increasing and decreasing stimulus strength eliciting paw withdrawal (Chaplan, S. R., et al.: J. Neurosci Meth. 53: 55-63 (1994)). All nerve-ligated rats were verified to be allodynic (responding to a stimulus of less than 4 g).
(§1) Drugs: Gabapentin was purchased from Research Biochemicals International (Natick, Mass., USA). Benfotiamine was purchased from Sigma. Gabapentin and benfotiamine were dissolved in saline and given at a volume ratio of 4 ml/kg. Study design: Rats received the oral administration of saline or increasing doses of gabapentin (30-300 mg/kg), benfotiamine (75-300 mg/kg) or the combination of gabapentin and benfotiamine 60 min before evaluation of threshold in spinal nerve injured rats. Observer was unaware of the treatment in each animal. Rats in all groups were tested for possible side effects such as reduction of righting, stepping, corneal and pinna reflexes before and after drug treatment.
Data analysis and statistics: Curves were constructed plotting the threshold for paw withdrawal as a function of time. Threshold for paw withdrawal was also expressed as the % of antiallodynia. % antiallodynia was calculated with the following equation: % antiallodynia=((area under the withdrawal theshold against time curve (AUC) of the treatment−AUC saline)/(AUC sham−AUC saline)×100. The dose-response curves were fitted using least-squares linear regression and ED30 and its standard error (SEM) were calculated according to the method described by Tallarida (Tallarida, R. J.: Drug Synergism and Dose-Effect Data Analysis. 1st Ed., New York, Chapman and Hall/CRC, pp 1-72 (2000)).
For evaluation of the interaction between gabapentin and benfotiamine, isobolograms were constructed using ED30 values obtained when the drugs were administered alone or combined. We used ED30 instead of ED50 values because benfotiamine was not able to reach more than 30% of antiallodynia in the model. […]

[2] = tested on: righting, stepping, corneal and pinna reflexes; assay: Side effect testing: righting, stepping, corneal and pinna reflexes before and after drug treatment; format: in vivo, female Wistar rats
Description: as §1

SMILES | ED30 (dose producing 30% of antiallodynia) ([1]; oral administration) | reduction of tactile allodynia (in words) ([1]; oral administration) | maximal antiallodynic effect ([1]; oral, at 300 mg/kg) | effect on assessed reflexes (righting, stepping, corneal, pinna) ([2]; oral, at the selected doses) | antiallodynic effect compared with thiamine (in words) ([1]; oral administration, FIG. 5) | % of antiallodynia reached in the model ([1]; oral benfotiamine 75-300 mg/kg, reason for using ED30 instead of ED50) | effect on assessed reflexes (righting, stepping, corneal, pinna) ([2]; rat, in vivo, po)
NCC1(CC(=O)O)CCCCC1 [Gabapentin] | 16.6 ± 2.6 mg/kg | reduced in a dose-dependent manner | 100% | No reduction in the assessed reflexes | – | – | –
C/C(=C(\CCOP(=O)(O)O)SC(=O)c1ccccc1)N(C=O)Cc1cnc(C)nc1N [Benfotiamine] | 47.4 ± 10 mg/kg | modest dose-dependent reduction | – | – | higher antiallodynic effect than thiamine | ≤ 30% | no evidence of modification of assessed reflexes
